Calls of active or inactive are those of the source. The rule behind the calls is not given here.
Tested on: GENE-TOX genotoxicity assays, various organisms and cells
Assay: GENE-TOX mutagenicity studies
Source text: GENE-TOX provides genetic toxicology (mutagenicity) test data from expert peer review of open scientific literature for more than 3,000 chemicals from the United States Environmental Protection Agency (EPA). GENE-TOX was established to select assay systems for evaluation, review data in the scientific literature, and recommend proper testing protocols and evaluation procedures for these systems.
GENE-TOX covers the years 1991 - 1998. It is no longer updated.
This is an archive assay for GENE-TOX mutagenicity studies.

[1] = Species/Cell Type: Nonhuman, Assay Type: Sister-chromatid exchange (SCE) in vitro, Assay Code: SC2T, Evaluation Type: Evaluation A (Pre-1980)
[2] = Species/Cell Type: Salmonella typhimurium (one or more of the five standard strains: TA98, TA100, TA1535, TA1537, and TA1538), Assay Type: Histidine reverse gene mutation, Ames assay, Assay Code: SAL+, Evaluation Type: Evaluation A (Pre-1980)
[3] = Species/Cell Type: Salmonella typhimurium (one or more of the five standard strains: TA98, TA100, TA1535, TA1537, and TA1538), Assay Type: Histidine reverse gene mutation, Ames assay, Assay Code: SALT, Evaluation Type: Evaluation A (Pre-1980)

**Q.** Which mutagenic call [1] does the source give for `C/C=C/C=C/C(=O)O` here?
**A.** no conclusion

**Q.** Which mutagenic call (Species/Cell Type: Arabidopsis species, Assay Type: Gene mutation, Assay Code: ARM+, Evaluation Type: Evaluation A (Pre-1980)) does the source give for `CCCCN(N=O)/C(N)=N/[N+](=O)[O-]` here?
**A.** active; positive

**Q.** What about the mutagenic call [2] of the same molecule?
**A.** active; positive

**Q.** For `O=S(=O)(O)c1cccc(Nc2nc(Nc3ccc(/C=C/c4ccc(Nc5nc(Nc6cccc(S(=O)(=O)O)c6)nc(N(CCO)CCO)n5)cc4S(=O)(=O)O)c(S(=O)(=O)O)c3)nc(N(CCO)CCO)n2)c1`, which mutagenic call [1] is on record?
**A.** no conclusion

**Q.** With `COc1ccc2c3c([nH]c2c1)C(C)=NCC3` as the molecule, how does the mutagenic call [3] read?
**A.** no conclusion

**Q.** `C[CH2][Hg][S]c1ccc(OS(=O)O)cc1` was tested. Which mutagenic call (Species/Cell Type: Saccharomyces cerevisiae, Assay Type: Aneuploidy, chromosome aberrations, Assay Code: YEN+, Evaluation Type: Evaluation A (Pre-1980)) did it give?
**A.** active; positive

**Q.** Which mutagenic call (Species/Cell Type: Bacillus subtilis (H17 vs M45T), Assay Type: Rec-assay, spot test, DNA effects (bacterial DNA repair), Assay Code: REXT, Evaluation Type: Evaluation A (Pre-1980)) does the source give for `CN(C)c1ccc(N=Nc2ccc(S(=O)(=O)O)cc2)cc1` here?
**A.** no conclusion

**Q.** And the mutagenic call (Species/Cell Type: Mammalian polychromatic erythrocytes, Assay Type: Micronucleus test, chromosome aberrations, Assay Code: MNTT, Evaluation Type: Evaluation A (Pre-1980))?
**A.** no conclusion

**Q.** What about the mutagenic call (Species/Cell Type: Mouse, Sex: Male, Assay Type: Sperm morphology, Assay Code: SPI-, Evaluation Type: Evaluation A (Pre-1980)) of the same molecule?
**A.** inactive; negative

**Q.** What about the mutagenic call (Species/Cell Type: Nonhuman, Assay Type: Sister-chromatid exchange (SCE) in vitro, Assay Code: SC2+, Evaluation Type: Evaluation B (Post-1980)) of the same molecule?
**A.** active; positive

**Q.** What about the mutagenic call (Species/Cell Type: Salmonella typhimurium (one or more of the five standard strains: TA98, TA100, TA1535, TA1537, and TA1538), Assay Type: Histidine reverse gene mutation, Ames assay, Assay Code: SAL-, Evaluation Type: Evaluation A (Pre-1980)) of the same molecule?
**A.** inactive; negative

**Q.** For `O=S(=O)(c1ccc(Cl)cc1)c1cc(Cl)c(Cl)cc1Cl`, which mutagenic call (Species/Cell Type: Vicia faba, Assay Type: Chromosome aberrations, Assay Code: VIC+D, Dose Response: With dose response, Evaluation Type: Evaluation A (Pre-1980)) is on record?
**A.** active; positive

**Q.** What does the source list for `CCCCCCCCCCCCCC(=O)ON(C(=O)CCCCCCCCCCCCC)c1ccc2c(c1)Cc1ccccc1-2`?
**A.** mutagenic call (Species/Cell Type: Human diploid fibroblasts, Assay Type: Unscheduled DNA synthesis (UDS) in vitro, DNA effects, Assay Code: UDH+, Evaluation Type: Evaluation A (Pre-1980)): active; positive; mutagenic call [3]: no conclusion

**Q.** `CC[N+]([O-])(CC)CCNc1ccc(C)c2sc3ccccc3c(=O)c12` was tested. Which mutagenic call [3] did it give?
**A.** no conclusion

**Q.** How did the call (Species/Cell Type: Nonhuman, Assay Type: In vivo carcinogenicity studies, Assay Code: CCG-L, Evaluation Type: Evaluation A (Pre-1980)) turn out when `c1ccc2c(c1)Oc1ccccc1O2` was run?
**A.** inactive; negative

**Q.** How did the mutagenic call [2] turn out when `CC(=O)ON(C)c1ccc(N=Nc2ccccc2)cc1` was run?
**A.** active; positive

**Q.** With `O=[N+]([O-])[O-].O=[N+]([O-])[O-].[Mn+2]` as the molecule, how does the mutagenic call (Species/Cell Type: Bacillus subtilis (H17 vs M45), Assay Type: Rec-assay, spot test, DNA effects (bacterial DNA repair), Assay Code: REW+, Evaluation Type: Evaluation A (Pre-1980)) read?
**A.** active; positive

**Q.** Which mutagenic call (Species/Cell Type: Rodents, Sex: Male, Assay Type: Dominant lethal test, Assay Code: DLT-, Evaluation Type: Evaluation A (Pre-1980)) does the source give for `CCCCCC[C@@H](O)C1C2=C(CC([C@H](O)C3CCCC(=O)O3)CC3=C(C(=O)OC3=O)[C@@H]1O)C(=O)OC2=O` (some centres undefined) here?
**A.** inactive; negative

**Q.** `O=C(O)CNc1ccc(O)cc1` was tested. Which mutagenic call (Species/Cell Type: Allium cepa, Assay Type: Chromosome aberrations, Assay Code: ALC+, Evaluation Type: Evaluation A (Pre-1980)) did it give?
**A.** active; positive

**Q.** With `COC(=O)Nc1nc2ccc(C(=O)c3ccccc3)cc2[nH]1` as the molecule, how does the mutagenic call (Species/Cell Type: Salmonella typhimurium, Assay Type: Forward and reverse gene mutation, body fluid assay, Assay Code: BFU+, Evaluation Type: Evaluation A (Pre-1980)) read?
**A.** active; positive

**Q.** What about the mutagenic call (Species/Cell Type: Salmonella typhimurium, Assay Type: Forward and reverse gene mutation, host-mediated assay, Assay Code: HMA+, Evaluation Type: Evaluation A (Pre-1980)) of the same molecule?
**A.** active; positive

**Q.** `Cc1cc(Cl)ccc1OCCCC(=O)O` was tested. Which mutagenic call (Species/Cell Type: Drosophila melanogaster, Assay Type: Sex-linked recessive lethal gene mutation, Assay Code: SRL-, Evaluation Type: Evaluation A (Pre-1980)) did it give?
**A.** inactive; negative

**Q.** What about the mutagenic call (Species/Cell Type: Salmonella typhimurium, Serratia marcesens, Assay Type: Forward and reverse gene mutation, host-mediated assay, Assay Code: HM2-, Evaluation Type: Evaluation A (Pre-1980)) of the same molecule?
**A.** inactive; negative

Reference: PubChem BioAssay AID1259408 (Genetic Toxicology Data Bank (GENE-TOX), 2018)
